Reference: US20040082635A1, “Fused cyclic compounds and medicinal use thereof” (priority 2001, published 2004)
Counter-ions that a name gives are not always drawn.

Each compound was assayed against T1, HCV polymerase (Hepatitis C virus genotype 1b, UniProt P26663) (assay: biochemical). Details: read-out: HCV polymerase inhibitory activity IC50.
T1 construct: a region encoding NS5B (591 amino acids; J Virol 1991 Mar, 65(3), 1105-13) was amplified by PCR; 6 His (N); made in house; host or cells: Escherichia coli
T1 sequence (P26663 2420-3010): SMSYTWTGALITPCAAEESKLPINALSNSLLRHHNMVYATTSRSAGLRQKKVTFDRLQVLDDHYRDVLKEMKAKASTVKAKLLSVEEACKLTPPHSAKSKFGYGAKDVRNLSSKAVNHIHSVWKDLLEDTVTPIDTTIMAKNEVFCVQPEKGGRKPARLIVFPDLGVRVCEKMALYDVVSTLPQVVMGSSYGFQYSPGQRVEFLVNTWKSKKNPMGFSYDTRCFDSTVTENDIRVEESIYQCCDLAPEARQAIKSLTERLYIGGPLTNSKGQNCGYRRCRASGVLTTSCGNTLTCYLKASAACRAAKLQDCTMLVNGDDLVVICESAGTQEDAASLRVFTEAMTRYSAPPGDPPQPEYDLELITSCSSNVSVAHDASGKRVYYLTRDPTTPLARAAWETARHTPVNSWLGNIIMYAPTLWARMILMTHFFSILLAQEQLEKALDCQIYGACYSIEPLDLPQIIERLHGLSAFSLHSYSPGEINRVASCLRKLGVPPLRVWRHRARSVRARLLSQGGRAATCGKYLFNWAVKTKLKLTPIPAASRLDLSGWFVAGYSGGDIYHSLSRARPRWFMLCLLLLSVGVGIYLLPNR

Row | Compound | IC50 [nM]
1 | O=C(O)c1ccc2c(c1)nc(-c1ccc(OCc3cc(C(=O)N4CC[C@H](O)[C@H](O)C4)ccc3-c3ccc(Cl)cc3)cc1)n2C1CCCCC1 (stereo in doubt) [Example 348, 2-{4-[2-(4-chlorophenyl)-5-(3,4-dihydroxypiperidin-1-ylcarbonyl)benzyloxy]phenyl}-1-cyclohexylbenzimidazole-5-carboxylic acid hydrochloride] | 13
2 | O=C(O)c1ccc2c(c1)nc(-c1ccc(/C=C/c3ccccc3)cc1)n2C1CCCCC1 [Example 11, 1-cyclohexyl-2-{4-[(E)-2-phenylvinyl]phenyl}-benzimidazole-5-carboxylic acid] | 530
3 | O=C(O)c1ccc2c(c1)nc(-c1ccc(OCc3ccccc3)cc1)n2C1CCCC1 [Example 12, 2-(4-benzyloxyphenyl)-1-cyclopentylbenzimidazole-5-carboxylic acid] | 600
4 | CC(C)(C)c1ccc(COc2ccc(-c3nc4cc(C(=O)O)ccc4n3C3CCCC3)cc2)cc1 [Example 43, 2-[4-(4-tert-butylbenzyloxy)phenyl]-1-cyclopentylbenzimidazole-5-carboxylic acid] | 580
5 | O=C(O)c1ccc(COc2ccc(-c3nc4cc(C(=O)O)ccc4n3C3CCCC3)cc2)cc1 [Example 44, 2-[4-(4-carboxybenzyloxy)phenyl]-1-cyclopentylbenzimidazole-5-carboxylic acid] | 950
6 | O=C(O)c1ccc2c(c1)nc(-c1ccc(OCc3ccc(Cl)cc3)cc1)n2C1CCCC1 [Example 45, 2-[4-(4-chlorobenzyloxy)phenyl]-1-cyclopentylbenzimidazole-5-carboxylic acid] | 400
7 | O=C(O)c1ccc2c(c1)nc(-c1ccc(OCc3ccc(Cl)s3)cc1)n2C1CCCC1 [Example 46, 2-{4-[(2-chloro-5-thienyl)methoxy]phenyl}-1-cyclopentylbenzimidazole-5-carboxylic acid] | 470
8 | O=C(O)c1ccc2c(c1)nc(-c1ccc(OCc3ccc(C(F)(F)F)cc3)cc1)n2C1CCCC1 [Example 47, 1-cyclopentyl-2-[4-(4-trifluoromethylbenzyloxy)phenyl]benzimidazole-5-carboxylic acid] | 540
9 | COc1ccc(COc2ccc(-c3nc4cc(C(=O)O)ccc4n3C3CCCC3)cc2)cc1 [Example 48, 1-cyclopentyl-2-[4-(4-methoxybenzyloxy)phenyl]benzimidazole-5-carboxylic acid] | 440
10 | O=C(O)c1ccc2c(c1)nc(-c1ccc(OCc3ccncc3)cc1)n2C1CCCC1 [Example 49, 1-cyclopentyl-2-[4-(4-pyridylmethoxy)phenyl]benzimidazole-5-carboxylic acid hydrochloride] | 940
11 | Cc1noc(C)c1COc1ccc(-c2nc3cc(C(=O)O)ccc3n2C2CCCC2)cc1 [Example 51, 1-cyclopentyl-2-{4-[(3,5-dimethyl-4-isoxazolyl)methoxy]phenyl}-benzimidazole-5-carboxylic acid] | 1000
12 | O=C(O)c1ccc2c(c1)nc(-c1ccc(OCc3ccccc3Cl)cc1)n2C1CCCC1 [Example 54, 2-[4-(2-chlorobenzyloxy)phenyl]-1-cyclopentylbenzimidazole-5-carboxylic acid] | 560
13 | O=C(O)c1ccc2c(c1)nc(-c1ccc(OCc3cccc(Cl)c3)cc1)n2C1CCCC1 [Example 55, 2-[4-(3-chlorobenzyloxy)phenyl]-1-cyclopentylbenzimidazole-5-carboxylic acid] | 360
14 | O=C(O)c1ccc2c(c1)nc(-c1ccc(OCc3ccc(Cl)c(Cl)c3)cc1)n2C1CCCC1 [Example 68, 1-cyclopentyl-2-[4-(3,4-dichlorobenzyloxy)phenyl]benzimidazole-5-carboxylic acid] | 280
15 | O=C(O)c1ccc2c(c1)nc(-c1ccc(OC(c3ccccc3)c3ccccc3)cc1)n2C1CCCC1 [Example 70, 1-cyclopentyl-2-[4-(diphenylmethoxy)phenyl]benzimidazole-5-carboxylic acid] | 190
16 | O=C(O)c1ccc2c(c1)nc(-c1ccc(OCCc3ccccc3)cc1)n2C1CCCC1 [Example 71, 1-cyclopentyl-2-(4-phenethyloxyphenyl)benzimidazole-5-carboxylic acid] | 620
17 | O=C(O)c1ccc2c(c1)nc(-c1ccc(CCc3ccccc3)cc1)n2C1CCCCC1 [Example 77, 1-cyclohexyl-2-(4-phenethylphenyl)benzimidazole-5-carboxylic acid] | 510
18 | O=C(O)c1ccc2c(c1)nc(-c1ccc(OCc3cc(Cl)cc(Cl)c3)cc1)n2C1CCCCC1 [Example 81, 1-cyclohexyl-2-[4-(3,5-dichlorobenzyloxy)phenyl]benzimidazole-5-carboxylic acid] | 180
19 | O=C(O)c1ccc2c(c1)nc(-c1ccc(OC(c3ccccc3)c3ccccc3)cc1)n2C1CCCCC1 [Example 82, 1-cyclohexyl-2-[4-(diphenylmethoxy)phenyl]benzimidazole-5-carboxylic acid] | 97
20 | CC(C)(C)c1cc(COc2ccc(-c3nc4cc(C(=O)O)ccc4n3C3CCCCC3)cc2)cc(C(C)(C)C)c1 [Example 83, 1-cyclohexyl-2-[4-(3,5-di-tert-butylbenzyloxy)phenyl]-benzimidazole-5-carboxylic acid] | 520
21 | O=C(O)c1ccc2c(c1)nc(-c1ccc(OCCc3ccc4ccccc4c3)cc1)n2C1CCCCC1 [Example 85, 1-cyclohexyl-2-{4-[2-(2-naphthyl)ethoxy]phenyl}benzimidazole-5-carboxylic acid] | 170
22 | O=C(O)c1ccc2c(c1)nc(-c1ccc(OCc3cccc4ccccc34)cc1)n2C1CCCCC1 [Example 86, 1-cyclohexyl-2-[4-(1-naphthyl)methoxyphenyl]benzimidazole-5-carboxylic acid] | 130
23 | O=C(O)c1ccc2c(c1)nc(-c1ccc(N(Cc3ccccc3)Cc3ccccc3)cc1)n2C1CCCCC1 [Example 87, 1-cyclohexyl-2-[4-(dibenzylamino)phenyl]benzimidazole-5-carboxylic acid] | 800
24 | O=C(O)c1ccc2c(c1)nc(-c1ccc(OCc3ccccc3-c3ccccc3)cc1)n2C1CCCCC1 [Example 88, 2-[4-(2-biphenylylmethoxy)phenyl]-1-cyclohexylbenzimidazole-5-carboxylic acid] | 92
25 | O=C(O)c1ccc2c(c1)nc(-c1ccc(OC(Cc3ccccc3)Cc3ccccc3)cc1)n2C1CCCCC1 [Example 90, 1-cyclohexyl-2-[4-(dibenzylmethoxy)phenyl]benzimidazole-5-carboxylic acid] | 200
26 | O=C(O)c1ccc2c(c1)nc(-c1ccc(OCC(=O)c3ccccc3)cc1)n2C1CCCCC1 [Example 91, 2-(4-benzoylmethoxyphenyl)-1-cyclohexylbenzimidazole-5-carboxylic acid] | 530
27 | O=C(O)c1ccc2c(c1)nc(-c1ccc(OCCOc3ccccc3)cc1)n2C1CCCCC1 [Example 96, 1-cyclohexyl-2-{4-[2-(phenoxy)ethoxy]phenyl}benzimidazole-5-carboxylic acid] | 250
28 | O=C(O)c1ccc2c(c1)nc(-c1ccc(OCCCCCc3ccccc3)cc1)n2C1CCCCC1 [Example 98, 1-cyclohexyl-2-[4-(5-phenylpentyloxy)phenyl]benzimidazole-5-carboxylic acid] | 300
29 | O=C(O)c1ccc2c(c1)nc(-c1cc(OCc3ccccc3)no1)n2C1CCCCC1 [Example 99, 2-(3-benzyloxy-5-isoxazolyl)-1-cyclohexylbenzimidazole-5-carboxylic acid] | 530
